{
  "source": "patent US7939554B2",
  "about": "“Protein phosphatase inhibitors” (The Cleveland Clinic Foundation, priority 2006, dated 2011)",
  "test_system": "spleen pLck and IFNγ+ cells",
  "experiment": "in vivo induction of spleen pLck and IFNγ+ cells in mice",
  "set-up": "species or system mouse",
  "experimental": "Spleens were harvested one hour post-treatment on day 4 and processed into splenocytes, which were used for assessing pLck levels by SDS-PAGE/Western blotting and for quantification of IFNγ+ cells by ELISPOT assays. Mice were also treated with L5 (˜10 mg/kg body weight, daily, s. c., n=2) to evaluate the toxicity of the compounds in vivo.",
  "key": {"[1]": {"conditions": "~3 mg/kg body weight, s.c., daily, 4 days"}},
  "data": [
    {"smiles": "O=C1C=CC(=O)C(c2cc(Cl)ccc2Cl)=C1", "note": "[L5]", "values": [
      {"measurement": "effect on splenocyte pLck in treated mice", "setting": "1 mg/kg of body weight", "result": "minor effect"},
      {"measurement": "spleen IFNγ+ cells increase in treated mice", "setting": "[1]", "result": "approximately 3 fold"},
      {"measurement": "splenocyte pLck increase in treated mice", "setting": "[1]", "result": "~3.3", "unit": "fold"}
    ]}
  ]
}
